Earlier results in patent US20170369926A1, “NEW MARKERS FOR EARLY DIAGNOSIS OF OVARIAN CANCER, MONITORING DURING THERAPY, AND NEW THERAPY OPTIONS DURING AND AFTER CHEMOTHERAPY” (Bioventures, LLC, priority 2011, published 2017).

How the values were obtained:
hepsin = hepsin (Homo sapiens, UniProt P05981); conditions: literature statement
plasma kallikrein = plasma kallikrein (Homo sapiens, UniProt P03952); conditions: from reference (15)
Sequence of plasma kallikrein (P03952 20-638, species assumed): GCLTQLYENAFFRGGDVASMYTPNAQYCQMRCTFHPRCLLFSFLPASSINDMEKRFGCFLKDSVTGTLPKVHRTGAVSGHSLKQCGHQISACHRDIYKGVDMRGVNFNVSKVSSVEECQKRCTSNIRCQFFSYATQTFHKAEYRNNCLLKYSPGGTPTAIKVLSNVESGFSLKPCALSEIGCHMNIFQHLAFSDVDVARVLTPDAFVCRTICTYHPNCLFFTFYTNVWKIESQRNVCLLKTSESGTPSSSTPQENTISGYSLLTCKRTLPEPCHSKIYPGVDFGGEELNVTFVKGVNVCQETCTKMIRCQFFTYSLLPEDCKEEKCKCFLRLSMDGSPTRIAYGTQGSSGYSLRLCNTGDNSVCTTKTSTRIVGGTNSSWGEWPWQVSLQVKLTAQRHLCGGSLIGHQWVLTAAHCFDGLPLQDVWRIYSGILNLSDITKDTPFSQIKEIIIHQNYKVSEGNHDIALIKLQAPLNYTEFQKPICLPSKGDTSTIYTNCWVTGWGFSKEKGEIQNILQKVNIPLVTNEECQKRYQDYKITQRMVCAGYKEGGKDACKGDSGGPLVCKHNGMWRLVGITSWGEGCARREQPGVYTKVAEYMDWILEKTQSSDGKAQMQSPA

Sequence of hepsin (P05981 whole entry): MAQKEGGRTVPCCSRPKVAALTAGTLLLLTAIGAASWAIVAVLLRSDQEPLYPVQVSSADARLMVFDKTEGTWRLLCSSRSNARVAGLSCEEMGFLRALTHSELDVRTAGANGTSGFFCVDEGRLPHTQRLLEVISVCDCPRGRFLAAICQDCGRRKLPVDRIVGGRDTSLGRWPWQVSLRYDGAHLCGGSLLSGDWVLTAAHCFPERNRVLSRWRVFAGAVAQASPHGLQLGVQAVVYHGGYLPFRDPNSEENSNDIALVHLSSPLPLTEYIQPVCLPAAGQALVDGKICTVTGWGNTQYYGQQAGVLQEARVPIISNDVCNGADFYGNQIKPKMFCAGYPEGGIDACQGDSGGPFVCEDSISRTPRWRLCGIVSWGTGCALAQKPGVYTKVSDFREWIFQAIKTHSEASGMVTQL

Compound	inhibition of hepsin (hepsin)	IC50 (plasma kallikrein)	effective dose by intraperitoneal injection in mice (intraperitoneal injection, reference (5))	effective dose orally in mice (oral, in food)
CC(C)(Sc1cc(C(C)(C)C)c(O)c(C(C)(C)C)c1)Sc1cc(C(C)(C)C)c(O)c(C(C)(C)C)c1 [Probucol, probucol]	inhibits hepsin	–	–	–
CN(C)C(=O)COC(=O)Cc1ccc(OC(=O)c2ccc(NC(=N)N)cc2)cc1.CS(=O)(=O)O [FOY-305]	–	1500 nM	20 mg/kg	0.1 % of the food
